Data on 27 compounds can be found in PubChem BioAssay AID330 (DTP/NCI, 2004).

Values joined by “and” are separate entries in the source; they are usually repeats but may differ in a detail not shown here. Identical values can stand only once. Toxic doses and inconclusive results are not listed.

This test relates to P388 leukemia ip, CD2F1 mice, survival T/C. Kind of test: NCI In Vivo Anticancer Drug Screen. Data for tumor model P388 Leukemia (intraperitoneal) in CD2F1 (CDF1) mice. The note with it: endpoint: median survival time, higher = longer survival. A digest of the protocol:
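Mice carrying the transplanted tumor received test compound or vehicle. Survival was recorded in each group, and the value is the treated-group measurement divided by that of the vehicle-treated control group.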

Where [1] appears, read: dose: 25.0 mg/kg/injection, schedule: Q01DX009 (ip), vehicle: saline with Tween-80.
Where [2] appears, read: dose: 50.0 mg/kg/injection, schedule: Q01DX009 (ip), vehicle: saline with Tween-80.
The mark [3] stands for this setting: dose: 50.0 mg/kg/injection, schedule: Q01DX005 (ip), vehicle: saline with Tween-80.
Setting [4] is: dose: 100.0 mg/kg/injection, schedule: Q01DX005 (ip), vehicle: saline with Tween-80.
Setting [5] is: dose: 200.0 mg/kg/injection, schedule: Q01DX005 (ip), vehicle: saline with Tween-80.
[6] abbreviates: dose: 120.0 mg/kg/injection, schedule: Q01DX005 (ip), vehicle: Klucel (hydroxypropylcellulose) (HPC).
Setting [7] is: dose: 240.0 mg/kg/injection, schedule: Q01DX005 (ip), vehicle: Klucel (hydroxypropylcellulose) (HPC).
Setting [8] is: dose: 100.0 mg/kg/injection, schedule: Q04DX003 (ip), vehicle: saline with Tween-80.
Where [9] appears, read: dose: 200.0 mg/kg/injection, schedule: Q04DX003 (ip), vehicle: saline with Tween-80.
Setting [10] is: dose: 400.0 mg/kg/injection, schedule: Q04DX003 (ip), vehicle: saline with Tween-80.
Setting [11] is: dose: 50.0 mg/kg/injection, schedule: Q01DX009 (ip), vehicle: saline.
The mark [12] stands for this setting: dose: 100.0 mg/kg/injection, schedule: Q01DX009 (ip), vehicle: saline.
Setting [13] is: dose: 400.0 mg/kg/injection, schedule: Q01DX009 (ip), vehicle: saline.
Where [14] appears, read: dose: 60.0 mg/kg/injection, schedule: Q01DX005 (ip), vehicle: saline with Tween-80.
[15] abbreviates: dose: 120.0 mg/kg/injection, schedule: Q01DX005 (ip), vehicle: saline with Tween-80.
[16] abbreviates: dose: 240.0 mg/kg/injection, schedule: Q01DX005 (ip), vehicle: saline with Tween-80.
The mark [17] stands for this setting: dose: 100.0 mg/kg/injection, schedule: Q01DX009 (ip), vehicle: saline with Tween-80.
[18] abbreviates: dose: 200.0 mg/kg/injection, schedule: Q01DX009 (ip), vehicle: saline with Tween-80.
Where [19] appears, read: dose: 100.0 mg/kg/injection, schedule: Q04DX003 (ip), vehicle: saline.
The mark [20] stands for this setting: dose: 200.0 mg/kg/injection, schedule: Q04DX003 (ip), vehicle: saline.
Setting [21] is: dose: 100.0 mg/kg/injection, schedule: Q04DX002 (ip), vehicle: Klucel (hydroxypropylcellulose) (HPC).
The mark [22] stands for this setting: dose: 200.0 mg/kg/injection, schedule: Q04DX002 (ip), vehicle: Klucel (hydroxypropylcellulose) (HPC).

Take `Nc1cc(Cl)c(Cl)cc1Cl`: the T/C runs as follows: (dose: 12.5 mg/kg/injection, schedule: Q01DX009 (ip), vehicle: saline with Tween-80) 100 % of control; under setting [1], 95 % of control; under setting [2], 90 % of control.
For the compound `COc1ccc(C2CC(C)(N3CCCC3)Oc3cc4c(cc32)OCO4)c(OC)c1` (configuration not stated), the T/C is 99 % of control under setting [3], 96 % of control under setting [4] and 86 % of control under setting [5].
On to `Cc1ccccc1Nc1ccnc2c1ccc1ccccc12`, for which the T/C is 88 % of control under setting [3], 92 % of control under setting [4] and 88 % of control under setting [5].
Take `N=c1ccccn1CCO`: the T/C (dose: 60.0 mg/kg/injection, schedule: Q01DX005 (ip), vehicle: saline) was 94 % of control and the T/C (dose: 120.0 mg/kg/injection, schedule: Q01DX005 (ip), vehicle: saline) is 99 % of control.
With `Fc1cccc(Cl)c1C(Nc1nncs1)Nc1nncs1`, the T/C reads like this: under setting [6], 171 % of control; under setting [7], 187 % of control and 194 % of control.
`CC(=O)OCC1OC(n2nc(/C=C/c3ccccc3)c(=O)n(-c3ccccc3)c2=S)C(OC(C)=O)C(OC(C)=O)C1OC(C)=O` (configuration not stated): the T/C reads like this: under setting [8], 103 % of control; under setting [9], 101 % of control; under setting [10], 110 % of control.
Take `O=[N+]([O-])c1ccc(/C=C\S(=O)(=O)OCCCl)cc1`: the T/C (dose: 50.0 mg/kg/injection, schedule: Q01DX005 (ip), vehicle: Klucel (hydroxypropylcellulose) (HPC)) was 100 % of control.
On to `CC1SCCCS1`, for which the T/C was 98 % of control under setting [11]; 98 % of control under setting [12]; 97 % of control (dose: 200.0 mg/kg/injection, schedule: Q01DX009 (ip), vehicle: saline); 97 % of control under setting [13].
For `NC(=S)NNC(=O)CCC(=O)Nc1ccccc1Cl`, the T/C reads like this: under setting [14], 103 % of control; under setting [15], 102 % of control; under setting [16], 99 % of control.
For the compound `CC(C)CCc1cc(O)ccc1O`, the T/C by setting is: under setting [1], 114 % of control; under setting [2], 101 % of control; under setting [17], 98 % of control; under setting [18], 97 % of control.
Take `CCCCCCCCCCN(CCCCCCCCCC)C1CC(OC2CC(O)(C(C)O)Cc3c(O)c4c(c(O)c32)C(=O)c2c(OC)cccc2C4=O)OC(C)C1O` (configuration not stated): the T/C was 99 % of control (dose: 4.7 mg/kg/injection, schedule: Q04DX003 (ip), vehicle: water); 99 % of control (dose: 9.4 mg/kg/injection, schedule: Q04DX003 (ip), vehicle: water); 101 % of control (dose: 18.8 mg/kg/injection, schedule: Q04DX003 (ip), vehicle: water); 110 % of control (dose: 37.5 mg/kg/injection, schedule: Q04DX003 (ip), vehicle: water); 101 % of control (dose: 75.0 mg/kg/injection, schedule: Q04DX003 (ip), vehicle: water).
In the case of `COc1ccc(C(c2cc3c(cc2O)OCO3)N2CCCCC2)c(OC)c1` (configuration not stated), the T/C (dose: 60.0 mg/kg/injection, schedule: Q01DX005 (ip), vehicle: Klucel (hydroxypropylcellulose) (HPC)) is 108 % of control; the T/C under setting [6] was 110 % of control; the T/C under setting [7] is 117 % of control.
For the compound `Cc1nnc2c(=O)n(C)ccn12`, the T/C reads like this: (dose: 25.0 mg/kg/injection, schedule: Q01DX001 (ip), vehicle: saline with Tween-80) 95 % of control; (dose: 50.0 mg/kg/injection, schedule: Q01DX001 (ip), vehicle: saline with Tween-80) 95 % of control; (dose: 100.0 mg/kg/injection, schedule: Q01DX001 (ip), vehicle: saline with Tween-80) 97 % of control.
Regarding `CC1(COCCOCC2(C)CO2)CO1` (configuration not stated), the T/C by setting is: under setting [12], 118 % of control; under setting [19], 100 % of control; under setting [20], 113 % of control; (dose: 400.0 mg/kg/injection, schedule: Q01DX009 (ip), vehicle: saline sonified) 177 % of control; under setting [13], 172 % of control; (dose: 400.0 mg/kg/injection, schedule: Q04DX003 (ip), vehicle: saline) 109 % of control. Also, the T/C (dose: 600.0 mg/kg/injection, schedule: Q01DX009 (ip), vehicle: saline sonified) was 200 % of control.
Turning to `CCOC(=O)c1csc(Br)n1`, the T/C runs as follows: under setting [14], 104 % of control; under setting [15], 100 % of control; under setting [16], 100 % of control.
With `Oc1ccc(O)c(Cl)c1Cl`, the T/C reads like this: (dose: 12.5 mg/kg/injection, schedule: Q01DX009 (ip), vehicle: saline) 105 % of control; (dose: 25.0 mg/kg/injection, schedule: Q01DX009 (ip), vehicle: saline) 98 % of control; (dose: 25.0 mg/kg/injection, schedule: Q04DX003 (ip), vehicle: saline) 106 % of control and 113 % of control; under setting [11], 96 % of control; (dose: 50.0 mg/kg/injection, schedule: Q04DX003 (ip), vehicle: saline) 100 % of control and 120 % of control; under setting [12], 104 % of control. For the same compound, the T/C reads like this: (dose: 100.0 mg/kg/injection, schedule: Q04DX002 (ip), vehicle: saline + alcohol) 108 % of control; under setting [19], 101 % of control and 118 % of control; (dose: 200.0 mg/kg/injection, schedule: Q04DX002 (ip), vehicle: saline + alcohol) 108 % of control; under setting [20], 105 % of control; (dose: 400.0 mg/kg/injection, schedule: Q04DX002 (ip), vehicle: saline + alcohol) 99 % of control.
Take `CCOC(=O)c1c(NC(=S)NC)sc2c1CCCC2`: the T/C reads like this: under setting [2], 106 % of control; under setting [17], 108 % of control; under setting [18], 91 % of control.
Turning to `O=c1ccc2cc3c(nc2[nH]1)[nH]c1ccccc13`, the T/C was 101 % of control under setting [21]; 99 % of control under setting [22]; 101 % of control (dose: 400.0 mg/kg/injection, schedule: Q04DX002 (ip), vehicle: Klucel (hydroxypropylcellulose) (HPC)).
In the case of `C1=NC(C2CC2)c2ccc3c([nH]c4ccccc43)c2N1` (configuration not stated), the T/C under setting [21] is 101 % of control and the T/C under setting [22] was 90 % of control.
`CCOC(=O)Nc1ccc(C2SCCN2C(=O)Nc2ccc(Cl)cc2)cc1` (configuration not stated): the T/C runs as follows: under setting [14], 100 % of control; under setting [15], 91 % of control; under setting [16], 91 % of control.
Consider `CC1(C)CC(C)(C)C2(OC3=C([Se]2)C(C)(C)CC(C)(C)C3=O)C(=O)C1=O` (configuration not stated), for which the T/C is, setting by setting: under setting [2], 100 % of control; under setting [17], 118 % of control; under setting [18], 117 % of control.
In the case of `Cc1nn(-c2ccccn2)c2ncnc(N)c12`, the T/C by setting is: under setting [3], 95 % of control; under setting [4], 101 % of control; under setting [5], 95 % of control.
With `O=C1CC(=O)N(C2CCCCC2)C(=O)N1c1ccccc1S(=O)(=O)Oc1ccccc1`, the T/C is, setting by setting: under setting [3], 103 % of control; under setting [4], 101 % of control; under setting [5], 103 % of control.
Turning to `CCOCCOCCOC(C)Oc1cccc(C(=O)OCC)c1` (configuration not stated), the T/C is, setting by setting: under setting [14], 92 % of control; under setting [15], 100 % of control; under setting [16], 92 % of control.
`Cc1[nH]cc2c1C(c1ccccc1F)=NCC(=O)N2`: the T/C under setting [8] is 101 % of control, the T/C under setting [9] is 100 % of control and the T/C under setting [10] was 101 % of control.
In the case of `C/C(=C\C(=O)O)Cc1ccccc1` (tested in a mixture with another compound), the T/C was 108 % of control (dose: 100.0 mg/kg/injection, schedule: Q04DX003 (ip), vehicle: other); 100 % of control (dose: 200.0 mg/kg/injection, schedule: Q04DX003 (ip), vehicle: other); 108 % of control (dose: 400.0 mg/kg/injection, schedule: Q04DX003 (ip), vehicle: other).
Regarding `O=C1CC2(CCc3ccccc32)C(=O)N1CN1CCOCC1` (configuration not stated), the T/C is, setting by setting: under setting [14], 100 % of control; under setting [15], 104 % of control; under setting [16], 100 % of control.
